Experimental data reported in US20250353825A1, “CANNABICYCLOL DERIVATIVES AND PREPARATION METHODS THEREOF” (priority 2023, published 2025).
Converted amounts (≈) assume the structure as drawn.

Experiments:
Assay type in all cases: cell-based
[1] = system: HEK-293T; assay: MTS cell viability assay, HEK-293T (293T) normal cells; details: Homo sapiens, HEK-293T, 72 h, read-out: IC50 against HEK-293T
Procedure, shortened: (§1)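 Cells plated 2×10^4/well, adhered 24 hours, then exposed to twofold dilutions from 40 μg/mL down to 0.3125 μg/mL for 72 hours at 37° C. Tumour lines in DMEM/10% FBS; stem cells in serum-free DMEM/F12 with EGF, bFGF, B27. MTS 2 hours, A490, IC50 calculated; triplicates.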

[2] = as above; details: human; primary viability screening, 72 hours, MTS; test concentration not stated; read-out: Cell viability in 293T (%)
Procedure, shortened: as §1

[3] = system: GSC-3diff; assay: MTS cell viability assay, differentiated glioblastoma stem cells GSC-3diff; details: Table 7, 72 hours, read-out: IC50 against GSC-3diff
Procedure: (§2) Primary viability screening: (1) the synthesized compounds 3a to 13d were respectively dissolved in DMSO to prepare a 40 μg/mL cannabicyclol and cannabicyclol derivative solutions.
(§3) (2) A control group: a 200 μL DMSO solvent.
(§4) (3) The solutions of compounds 3a to 13d were diluted in a twofold gradient to obtain cannabicyclol and cannabicyclol derivative solutions at concentrations of 40 μg/mL, 20 μg/mL, 10 μg/mL, 5 μg/mL, 2.5 μg/mL, 1.25 μg/mL, and 0.625 μg/mL, and 0.3125 μg/mL, respectively.
(§5) (4) Three glioblastoma stem cells (GSC-3, GSC-12, and GSC-18), three pancreatic cancer cell-derived stem cells (PANC-1-CSC, BXPC-3-CSC, and ASPC1-CSC), three liver cancer cell-derived stem cells (HepG2-CSC, MHCC97H-CSC, and SMMC7721-CSC), HEK-293T cells, 16 tumor cells (U251, U87, T98G, PANC1, BXPC3, ASPC1, HepG2, MHCC97H, SMMC7721, PC3, SKOV3, MDA-MB231, A549, HCT116, HEC-1B, MKN28), and differentiated glioblastoma stem cells (GSC-3diff and GSC-12diff) derived from GSC-3 and GSC-12 (all of the cells were provided by the Laboratory of Tumor Animal Model Preparation and Application Research, West China Hospital, Sichuan University) were inoculated into a 96-well plate at a concentration of 2×10^4 cells/well, and 100 μL of culture medium was then added to each well; […]
(§6) (10) The absorbance value at 490 nm was measured on an enzyme labeling apparatus, and the IC50 value was calculated.

[4] = system: HepG2; assay: MTS cell viability assay, HepG2; details: Homo sapiens, Table 7, 72 hours, read-out: IC50 against HepG2
Procedure: as §2, §3, §4, §5, §6

[5] = system: SKOV3; assay: MTS cell viability assay, SKOV3; details: Homo sapiens, SK-OV-3; Table 7, 72 hours; read-out: IC50 against SKOV3
Procedure: as §2, §3, §4, §5, §6

[6] = system: BXPC3; assay: MTS cell viability assay, BXPC3; details: Homo sapiens, BXPC-3; Table 7, 72 hours; read-out: IC50 against BXPC3
Procedure: as §2, §3, §4, §5, §6

[7] = system: MKN28; assay: MTS cell viability assay, MKN28; details: Homo sapiens, MKN-28; Table 7, 72 hours; read-out: IC50 against MKN28
Procedure: as §2, §3, §4, §5, §6

[8] = system: 9 types of cancer stem cells; assay: MTS cell viability assay, summary over 9 types of cancer stem cells; details: FIG. 3, CBL solution at different concentrations
Procedure: as §2, §3, §4, §5, §6

[9] = system: SMMC7721-CSC; assay: MTS cell viability assay, SMMC7721-CSC; details: Table 6, tumor stem cell, 72 hours; read-out: IC50 against SMMC7721-CSC
Procedure: as §2, §3, §4, §5, §6

[10] = system: U87; assay: MTS cell viability assay, U87; details: Homo sapiens, U-87 MG; Table 7, 72 hours; read-out: IC50 against U87
Procedure: as §2, §3, §4, §5, §6

[11] = system: PC3; assay: MTS cell viability assay, PC3; details: Homo sapiens, PC-3; Table 7, 72 hours; read-out: IC50 against PC3
Procedure: as §2, §3, §4, §5, §6

[12] = system: HEC18; assay: MTS cell viability assay, HEC18; details: Table 7, 72 hours; read-out: IC50 against HEC18
Procedure: as §2, §3, §4, §5, §6

## CCCCCc1cc(O)c2c(c1)OC1(C)CCC3C1C2C3(C)C (stereo not drawn) [Compound 3a, cannabicyclol]
[1]
  IC50: > 40 µg/mL
[2]
  viability at 72 h: 82%
[3]
  IC50: 23.5 µg/mL (≈ 74.7 µM)
[4]
  IC50: > 40 µg/mL
[5]
  IC50: > 40 µg/mL
[6]
  IC50: > 40 µg/mL
[7]
  IC50: > 40 µg/mL
[8]
  cell viability of 9 types of cancer stem cells at different concentrations: decreased with increasing concentrations
[9]
  IC50: 3.85 µg/mL (≈ 12.2 µM)
[10]
  IC50: > 40 µg/mL
[11]
  IC50: > 40 µg/mL
[12]
  IC50: > 40 µg/mL
